Literature values as cited in publication PMC4744679 (Drug Testing and Analysis, 2015).
One block for each compound: values may come before it.

What was measured:
[1] = rats, orally administered, 24 and 48 h after injection
[2] = 0.5–3 h of observation
[3] = for Primary accumulation: inner ear, brain, kidney and liver examined
[4] = murine, single intraperitoneal injection
[5] = mature teratoma

- Main accumulation organs [1]: liver, kidneys and spleen
SMILES: CC(=O)[O-].CC(=O)[O-].N.NC12CC3CC(CC(C3)C1)C2.[Cl-].[Cl-].[Pt+4] [(OC‐6‐43)‐bis (acetato) (1‐adamantylamine) amminedichloroplatinum (IV)]

- Primary accumulation sites [2]: spleen, liver, and kidneys
SMILES: CC(C)c1cc(C(=O)[O-])c([O-])c(C(C)C)c1.NC1CCCCC1N.[Pt+2] [Saliplatin, cis‐3,5‐diisopropylsalylic cyclohexano‐diaminoplatinum (II)]

SMILES: N.N.O=C([O-])C1(C(=O)[O-])CCC1.[Pt+2] [carboplatin, cis‐diammine(1,1‐cyclobutanedicarboxylato)platinum (II)]
- Distribution into brain and inner ear [3]: much less distributed into brain and inner ear
- Primary accumulation [3]: kidney and liver
- Main deposition: kidney

SMILES: N.N.[Cl][Pt][Cl] [cisplatin, cis‐dichlorodiammineplatinum (II)]
- Main platinum accumulation [4]: kidneys and, secondly, in liver
- Time after administration at which platinum is detected in the tissue [5]: more than 7 years
- Primary accumulation [3]: kidney and liver
- Main deposition: kidney
